Assay results taken from patent US20260265798A1, “Enzymes and Uses in Biocatalytic Halogenation of N-Heteroaryls Thereof” (Agency for Science, Technology and Research, priority 2022, published 2026).
Marks after values point to notes of the source that are not given here.

Experiments:
NT-11 PrnC = target: T1, NT-11 PrnC (Pseudomonas fluorescens, UniProt P95482); experiment: NT-11 PrnC-catalyzed halogenation, analytical scale biotransformation (in-vitro regioselective chlorination, substrate scope); assay type: biochemical; settings: in-vitro chlorination by PrnC under optimized conditions; substrate 0.5 mM, MgCl2 10 mM, overnight 30° C.; HPLC
T1 construct: made in house; host or cells: T7 Express E. coli (NEB), pET-28a(+)
T1 sequence (P95482 with tags, fused parts or gaps): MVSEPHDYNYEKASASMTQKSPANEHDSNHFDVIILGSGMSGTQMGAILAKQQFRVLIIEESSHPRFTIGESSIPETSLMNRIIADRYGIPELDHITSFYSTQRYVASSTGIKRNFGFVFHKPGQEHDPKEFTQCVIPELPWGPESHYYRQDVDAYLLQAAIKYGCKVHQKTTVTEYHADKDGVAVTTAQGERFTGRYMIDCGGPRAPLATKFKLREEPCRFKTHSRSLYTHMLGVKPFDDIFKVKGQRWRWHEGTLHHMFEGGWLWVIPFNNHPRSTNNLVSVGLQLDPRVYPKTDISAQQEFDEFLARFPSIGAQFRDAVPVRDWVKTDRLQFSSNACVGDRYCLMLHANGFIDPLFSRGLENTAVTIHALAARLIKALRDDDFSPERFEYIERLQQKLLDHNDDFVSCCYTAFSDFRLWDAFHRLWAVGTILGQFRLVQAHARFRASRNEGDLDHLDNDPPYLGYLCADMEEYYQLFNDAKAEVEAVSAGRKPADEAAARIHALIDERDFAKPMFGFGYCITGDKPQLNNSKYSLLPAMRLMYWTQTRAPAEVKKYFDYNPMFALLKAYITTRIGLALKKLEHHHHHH
Protocol: NT-11 PrnC-Catalyzed halogenation. In a solution containing the pyrrolic derivative starting material (0.5 mM), MgCl2/MgBr2 (10 mM), glucose (5.0 mM), FAD ([…]), NT-11 PrnC (12.5 μM), Fre ([…]) and Gdhi (2.5 μM) in 10 mM potassium phosphate buffer, NADH (2.5 mM) was added to a total volume of 200 μL. After an overnight incubation of 30° C. and orbital shaking at 350 rpm, reactions were quenched with an equivalent volume of MeOH, pelleted by centrifugation (15000 rpm for 10 min) and the supernatant analyzed by HPLC-MS using the analytical HPLC method.
Analytical HPLC Method. 10 μL of the supernatant injected onto SecurityGuard™ column (KJ0-4282) with a (4.0 mm×3.0 mm) guard cartridge before separation using a Phenomenex Gemini® C18 analytical column (5 μm packing, 150 mm×4.6 mm). Gradient starting conditions of 5% MeCN/H2O (+0.1% Formic acid) were held for 1 min before development into 50% MeCN/H2O over 3 min, followed by development into 95% MeCN/H2O over 3 min. 95% MeCN/H2O was held for 1 min before equilibration back to starting conditions over 1 min. Starting conditions was held for 1 min followed by another 2 min post-run. Flow rates were kept constant at 1 mL/min. Column temperature was kept constant at 30° C. UV absorbance was detected at 220 nm, 254 nm and 210 nm throughout the run.
A substrate scope of the enzyme by the application of the Prnc enzyme on a list of structural diverse pyrrolic substrates is determined. An optimized co-factors regeneration protocol was used to regulate the generation of the activated halogen which is captured by the Prnc enzyme into the active site for the bioconversion. Reaction is conducted at ambient temperature of 30° C., in an aqueous non-toxic buffer solution with an environmentally friendly chloride source.

PrnC = target: T2, PrnC (Pseudomonas fluorescens, UniProt P95482); experiment: Optimization study of PrnC biocatalyst enzymatic assay conditions on the native substrate 1; assay type: biochemical
T2 construct: made in house; host or cells: T7 Express E. coli (NEB), pET-28a(+)
T2 sequence (P95482 with tags, fused parts or gaps): T1 sequence (P95482 with tags, fused parts or gaps)
Protocol: The conditions in the table above would be referred to as the standard conditions of the present invention; i.e. flavin-dependent halogenase (4 mol %), flavin adenine dinucleotide (FAD) (0.2 mol %), E. coli flavin reductase (Fre) (0.5 mol %), nicotinamide adenine dinucleotide hydrogen (NADH) (5.0 equiv), glucose 1-dehydrogenase (GdHi) (0.5 mol %), monosaccharide (10.0 equiv), halogen (20.0 equiv), buffer (10 mM, pH 7.4).
With the purified biocatalyst PrnC enzyme in hand, a preliminary optimization study of the enzymatic assay conditions was performed on the native substrate monodechloroaminopyrrolnitrin (1). The enzyme assays were carried out for 18 h with orbital shaking at 300 rpm and a temperature of 30° C. In addition to the substrate and PrnC, the reaction mixture contained FAD (0.1 equivalents relative to PrnC), NADH and E. coli flavin reductase (Fre), needed to generate FADH2 for the halogenation reaction. In initial assays, even using a super stoichiometric amount of NADH (5.0 equiv) (entry 1) only yielded 18% conversion to the desired product.

| SMILES | conversion yield (NT-11 PrnC) [%] | also measured |
| --- | --- | --- |
| Nc1c(Cl)cccc1-c1c[nH]cc1Cl [compound 2, 2-chloro-6-(4-chloro-1H-pyrrol-3-yl)aniline] | 55 | conversion of 2 (%) (PrnC; entry 1: 2 mol% FAD (10x), no GdHi & glucose, 18 h, 30° C.): 18%; conversion of 2 (%) (PrnC; entry 2: 2 mol% FAD (10x), GdHi regen): 16%; conversion of 2 (%) (PrnC; entry 4: 1 mol% of Fre (2x)): 72%; conversion of 2 (%) (PrnC; entry 5: 0.05 Equiv NADH (Less 100x)): 32%; conversion of 2 (%) (PrnC; entry 6: 0.05 Equiv NADH (Less 100x) + 8 mol% PrnC (2x)): 53%; conversion of 2 (%) (PrnC; entry 7: 0.05 Equiv NADH (Less 100x) in Tris HCl buffer): 49%; conversion of 2 (%) (PrnC; standard conditions: PrnC 4 mol%, GdHi 0.5 mol%, FAD 0.2 mol%, Fre 0.5 mol%, NADH 5.0 equiv, glucose 10.0 equiv, MgCl2 20.0 equiv, phosphate buffer 10 mM pH 7.4): 91^b % |
| CC(=O)Nc1ccccc1-c1c[nH]cc1Cl [compound 3, N-(2-(4-chloro-1H-pyrrol-3-yl)phenyl)acetamide] | 18 | – |
| Cc1ccccc1-c1c[nH]cc1Cl [compound 5, 3-chloro-4-(o-tolyl)-1H-pyrrole] | 22 | – |
| COc1ccccc1-c1c[nH]cc1Cl [compound 6, 3-chloro-4-(2-methoxyphenyl)-1H-pyrrole] | 41 | – |
| Oc1ccccc1-c1c[nH]cc1Cl [compound 7, 2-(4-chloro-1H-pyrrol-3-yl)phenol] | 21 | – |
| Clc1c[nH]cc1-c1ccccc1 [compound 8, 3-chloro-4-phenyl-1H-pyrrole] | 77 | – |
| Clc1c[nH]cc1-c1cccnc1 [compound 9, 3-(4-chloro-1H-pyrrol-3-yl)pyridine] | 73 | – |
| Nc1ccccc1-c1cc(Cl)c[nH]1 [compound 11, 2-(4-chloro-1H-pyrrol-2-yl)aniline] | 68 | – |
| Nc1c(Cl)cccc1-c1[nH]ncc1Cl [compound 12, 2-chloro-6-(4-chloro-1H-pyrazol-5-yl)aniline] | 14 | – |
| Clc1c[nH]cc1-c1cnc2ccccc2c1 [compound 14, 3-(4-chloro-1H-pyrrol-3-yl) quinoline] | 63 | – |
